Kd and IC50 data for twelve compounds are collected here from US20240025906A1 (NEURON23, INC., priority 2022, published 2024).

Molecules are shown by their SMILES.

The target of assay [1] is T1, TYK2 JH2 (Homo sapiens, UniProt P29597).
T1 construct: purchased DiscoverX (KINOMEscan KdELECT service); host or cells: E. coli BL21-derived (T7 phage display) or HEK-293
As to the kind of experiment: TYK2 JH2 binding assay (KINOMEscan KdELECT competitive binding). The following applies: TYK2 JH2 domain, DiscoverX KINOMEscan KdELECT (Assay A); read-out: Biochemical TYK2_DiscoverX_JH2_BND_Kd. Summed up:
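JH2-domain fragment, expressed as T7 phage tag in BL21-derived E. coli or DNA-tagged from HEK-293, competed with test compound against bead-immobilized biotinylated ligand in binding buffer (0.9% DMSO). 1 h shaking at room temperature; bound kinase eluted with 0.5 μM free ligand and quantified by qPCR. Kd from 11-point 3-fold dilutions.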

Assay [2] relates to JAK1/TYK2 pSTAT5 (Tyr694/699) in THP-1 cell line. As to the kind of experiment: IFNa-stimulated JAK1/TYK2 pSTAT5 (Tyr694/699) inhibition cellular assay, AlphaLISA. The class given is cell-based. To be noted: Homo sapiens; THP-1 cells, IFNa-stimulated, AlphaLISA (Assay B); read-out: Cellular_THP1_IFNa-pSTATS_TYK2. Summed up: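 The readout is AlphaLISA signal at 615 nm for phospho-STAT5 in THP-1 lysates after IFNa stimulation (added at 100 ng/mL, 30 min, 37 °C). Cells had compound for 1 h beforehand across eight 6-fold concentrations up to 10000 nM final. IC50s are 4PL fits with bottom and Hill slope constrained.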
On the technique in general: Bead proximity is the source of the signal in Alpha formats.

T1 sequence (P29597 589-875 limits assumed): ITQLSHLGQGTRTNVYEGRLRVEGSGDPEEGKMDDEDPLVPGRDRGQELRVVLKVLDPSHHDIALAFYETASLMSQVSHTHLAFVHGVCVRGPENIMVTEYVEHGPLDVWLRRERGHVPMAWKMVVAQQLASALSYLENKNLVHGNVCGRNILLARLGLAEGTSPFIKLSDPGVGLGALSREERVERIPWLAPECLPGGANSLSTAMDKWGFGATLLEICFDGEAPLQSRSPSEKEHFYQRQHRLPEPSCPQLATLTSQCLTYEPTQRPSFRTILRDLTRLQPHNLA

For `CNc1ncc(-c2nc3cc(OCC(C)(C)C#N)ccc3o2)c2cc(NC(=O)C3CC3)ncc12` [Example 236, N-(5-(5-(2-cyano-2-methylpropoxy)benzo[d]oxazol-2-yl)-8-(methylamino)-2,7-naphthyridin-3-yl)cyclopropanecarboxamide], in assay [1], the Kd was at most 100 nM. Besides, the IC50 in assay [2] was at most 500 nM.

As for `CNc1ncc(-c2nc3cc(C(N)=O)ccc3o2)c2cc(NC(=O)C3CC3)ncc12` [Example 237, 2-(6-(cyclopropanecarboxamido)-1-(methylamino)-2,7-naphthyridin-4-yl)benzo[d]oxazole-5-carboxamide], in assay [1], the Kd was at most 100 nM. Also, in assay [2], the IC50 is at most 500 nM.

Consider `CNC(=O)c1ccc2oc(-c3cnc(NC)c4cnc(NC(=O)C5CC5)cc34)nc2c1` [Example 238, 2-(6-(cyclopropanecarboxamido)-1-(methylamino)-2,7-naphthyridin-4-yl)-N-methylbenzo[d]oxazole-5-carboxamide], for which the Kd in assay [1] was at most 100 nM. Also, the IC50 in assay [2] is at most 500 nM.

Turning to `CNc1ncc(-c2nc3cc(OC[C@@H](C)O)ccc3o2)c2cc(NC(=O)C3CC3)ncc12` [Example 239, (R)—N-(5-(5-(2-hydroxypropoxy)benzo[d]oxazol-2-yl)-8-(methylamino)-2,7-naphthyridin-3-yl)cyclopropanecarboxamide], the Kd in assay [1] is at most 100 nM. Moreover, in assay [2], the IC50 is at most 500 nM.

Take `CNc1ncc(-c2nc3cc(OC[C@H](C)O)ccc3o2)c2cc(NC(=O)C3CC3)ncc12` [Example 240, (S)—N-(5-(5-(2-hydroxypropoxy)benzo[d]oxazol-2-yl)-8-(methylamino)-2,7-naphthyridin-3-yl)cyclopropanecarboxamide]: in assay [1], the Kd was at most 100 nM. Besides, the IC50 in assay [2] is at most 500 nM.

Consider `CNc1ncc(-c2nc3cc(OC[C@@H](C)OC)ccc3o2)c2cc(NC(=O)C3CC3)ncc12` [Example 241, (R)—N-(5-(5-(2-methoxypropoxy)benzo[d]oxazol-2-yl)-8-(methylamino)-2,7-naphthyridin-3-yl)cyclopropanecarboxamide], for which the Kd in assay [1] was at most 100 nM. For the same compound, in assay [2], the IC50 is at most 500 nM.

In the case of `CNc1ncc(-c2nc3cc(OC[C@H](C)OC)ccc3o2)c2cc(NC(=O)C3CC3)ncc12` [Example 242, (S)—N-(5-(5-(2-methoxypropoxy)benzo[d]oxazol-2-yl)-8-(methylamino)-2,7-naphthyridin-3-yl)cyclopropanecarboxamide], in assay [1], the Kd is at most 100 nM. Besides, the IC50 in assay [2] was at most 500 nM.

Take `CNc1ncc(-c2nc3cc(C(C)(F)F)ccc3o2)c2cc(NC(=O)C3CC3)ncc12` [Example 243, N-(5-(5-(1,1-difluoroethyl)benzo[d]oxazol-2-yl)-8-(methylamino)-2,7-naphthyridin-3-yl)cyclopropanecarboxamide]: in assay [1], the Kd was at most 100 nM. In addition, in assay [2], the IC50 was at most 500 nM.

In the case of `CNc1ncc(-c2nc3cc(C(F)F)ccc3o2)c2cc(NC(=O)C3CC3)ncc12` [Example 244, N-(5-(5-(difluoromethyl)benzo[d]oxazol-2-yl)-8-(methylamino)-2,7-naphthyridin-3-yl)cyclopropanecarboxamide], the Kd in assay [1] is at most 100 nM. Moreover, in assay [2], the IC50 is at most 500 nM.

Take `CNc1ncc(-c2nc3cc(CC#N)ccc3o2)c2cc(NC(=O)C3CC3)ncc12` [Example 245, N-(5-(5-(cyanomethyl)benzo[d]oxazol-2-yl)-8-(methylamino)-2,7-naphthyridin-3-yl)cyclopropanecarboxamide]: in assay [1], the Kd was at most 100 nM. Moreover, in assay [2], the IC50 was at most 500 nM.

Turning to `CCOc1ccc2oc(-c3cnc(NC)c4cnc(NC(=O)C5CC5)cc34)nc2c1` [Example 246, N-(5-(5-ethoxybenzo[d]oxazol-2-yl)-8-(methylamino)-2,7-naphthyridin-3-yl)cyclopropanecarboxamide], the Kd in assay [1] was at most 100 nM. For the same compound, the IC50 in assay [2] is at most 500 nM.

As for `CNc1ncc(-c2nc3cc(OCC(F)F)ccc3o2)c2cc(NC(=O)C3CC3)ncc12` [Example 247, N-(5-(5-(2,2-difluoroethoxy)benzo[d]oxazol-2-yl)-8-(methylamino)-2,7-naphthyridin-3-yl)cyclopropanecarboxamide], the Kd in assay [1] was at most 100 nM. Besides, the IC50 in assay [2] is at most 500 nM.
